Source: patent US11000033B2, “Ketone or oxime compound, and herbicide” (NISSAN CHEMICAL CORPORATION, priority 2014, dated 2021)

Legend:
Assay type in all cases: in vivo
[1] = tested on: Lolium multiflorum Lam.; test: Test Example 5: herbicidal effect by foliage application, plastic box (symbol K); details: 320 g/ha, 3 weeks after application
Procedure, shortened: (§1)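 Sowing in sterilized diluvial soil, 14 days' greenhouse growth at 25° C. to 30° C., then uniform small-sprayer foliar application of aqueous emulsion dilution; plants scored three weeks afterwards.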

[2] = tested on: beet; test: Test Example 4: effect on crop by soil treatment (symbol f); details: application herbicide amount 320 g/ha
Procedure, shortened: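 Greenhouse culture at 25° C. to 30° C. followed sowing of seed in spots on sterilized diluvial soil with a soil cover close to 1.5 cm thick.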

[3] = tested on: Abutilon theophrasti; test: Test Example 4: herbicidal effect by soil treatment (symbol M); details: application herbicide amount 320 g/ha
Procedure, shortened: (§2)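 Seeds were sown in sterilized diluvial soil, covered with about 1.5 cm of soil, and the soil surface was sprayed with a water-diluted emulsion of the compound at a predetermined rate. Plants grew in a greenhouse at 25° C. to 30° C.; effects were scored visually 3 weeks after application.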

[4] = tested on: soybean; test: Test Example 5: effect on crop by foliage application, plastic box (symbol d); details: 320 g/ha, 3 weeks after application
Procedure, shortened: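 Diluvial soil, sterilized and boxed (21 × 13 × 7 cm), received spot-sown seed covered by about 1.5 cm soil; plants were then greenhouse-grown at 25–30° C.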

[5] = tested on: Monochoria vaginalis; test: Test Example 1: herbicidal activity, application before weed generation in submerged conditions (symbol C); details: application herbicide amount 320 g/ha
Procedure, shortened: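 Paddy pre-emergence test. Formulated emulsion, water-diluted to a predetermined rate, is applied to floodwater on sowing day; rice transplanted at 2.5 leaves. Effect read at 3 weeks on a 0–5 herbicidal-ratio scale.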

[6] = tested on: Scirpus juncoides; test: Test Example 2: herbicidal activity, application during weed generation in submerged conditions (symbol B); details: Table 23; application herbicide amount 320 g/ha; grade 0-5 by criteria of Test Example 1
Procedure, shortened: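 Flooded-soil post-emergence test: emulsion of compound, water-diluted to target rate, applied to paddy water surface at 1–2 leaf stage of mixed-sown weeds (alluvial soil, 4 cm water, 25–30° C. greenhouse); visual rating 3 weeks after application.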

[7] = tested on: Stellaria media; test: Test Example 4: herbicidal effect by soil treatment (symbol P); details: application herbicide amount 320 g/ha
Procedure, shortened: as §2

[8] = tested on: directly sowed rice plant; test: Test Example 3: effect on crop by foliage application, Wagner pot (symbol b); details: application herbicide amount 320 g/ha
Procedure, shortened: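 Steps: fill a 1/10000-are Wagner pot with alluvial soil; add water and mix to submerge at 0.1–0.5 cm depth; sow rice plus Echinochloa crus-galli var. crus-galli, Leptochloa chinensis and Cyperus difformis; grow in a 25–30 °C greenhouse.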

[9] = tested on: Echinochloa crus-galli var. crus-galli; test: Test Example 5: herbicidal effect by foliage application, plastic box (symbol H); details: 320 g/ha, 3 weeks after application
Procedure, shortened: as §1

SMILES | K: Lolium multiflorum Lam., herbicidal effect grade [1] | f: beet, effect on crop grade [2] | M: Abutilon theophrasti, herbicidal effect grade [3] | d: soybean, effect on crop grade [4] | Herbicidal effect grade, C: Monochoria vaginalis [5] | Herbicidal effect grade, B: Scirpus juncoides [6] | P: Stellaria media, herbicidal effect grade [7] | effect on crop b (directly sowed rice plant), grade 0-5 [8] | H: Echinochloa crus-galli var. crus-galli, herbicidal effect grade [9] | K: Lolium multiflorum Lam., herbicidal effect (criteria of Test Example 1) [1] | Effect on crop grade, f: beet [2] | Herbicidal effect grade, M: Abutilon theophrasti [3] | d: soybean, effect on crop (criteria of Test Example 1) [4] | Herbicidal effect grade, P: Stellaria media [7] | H: Echinochloa crus-galli var. crus-galli, herbicidal effect (criteria of Test Example 1) [9] | b (directly sowed rice plant) effect on crop grade ([8]; Table 24)
CON=C(C)CC1CC(O)=C(c2c(C)cc(-c3ccccn3)cc2C)C1=O (mixture of isomers) [6-051] | 5 (Herbicidal ratio of 90% or more (almost completely withered)) | 0 (Herbicidal ratio of 5% or lower (almost no effect)) | 1 (Herbicidal ratio of 5% or higher and lower than 20%) | 1 (Herbicidal ratio of 5% or higher and lower than 20%) | 2 (Herbicidal ratio of 20% or higher and lower than 40%) | 4 (Herbicidal ratio of 70% or higher and lower than 90%) | 2 (Herbicidal ratio of 20% or higher and lower than 40%) | 5 (Herbicidal ratio of 90% or more (almost completely withered)) | 5 (Herbicidal ratio of 90% or more (almost completely withered)) | – | – | – | – | – | – | –
CON=C(C)CC1CC(OC(=O)COc2ccccc2)=C(c2c(C)cc(-c3ccc(Cl)cc3Cl)cc2C)C1=O (stereo not drawn) [6-092] | – | – | – | – | 0 (Herbicidal ratio of 5% or lower (almost no effect)) | 0 (Herbicidal ratio of 5% or lower (almost no effect)) | – | 5 (Herbicidal ratio of 90% or more (almost completely withered)) | – | 5 (Herbicidal ratio of 90% or more (almost completely withered)) | 0 (Herbicidal ratio of 5% or lower (almost no effect)) | 0 (Herbicidal ratio of 5% or lower (almost no effect)) | 1 (Herbicidal ratio of 5% or higher and lower than 20%) | 0 (Herbicidal ratio of 5% or lower (almost no effect)) | 4 (Herbicidal ratio of 70% or higher and lower than 90%) | –
CON=C(C)CC1CC(O)=C(c2c(C)cc(-c3ncccn3)cc2C)C1=O (mixture of isomers) [6-057] | – | 0 (Herbicidal ratio of 5% or lower (almost no effect)) | 0 (Herbicidal ratio of 5% or lower (almost no effect)) | – | 1 (Herbicidal ratio of 5% or higher and lower than 20%) | 2 (Herbicidal ratio of 20% or higher and lower than 40%) | 0 (Herbicidal ratio of 5% or lower (almost no effect)) | 5 (Herbicidal ratio of 90% or more (almost completely withered)) | – | 5 (Herbicidal ratio of 90% or more (almost completely withered)) | – | – | 3 (Herbicidal ratio of 40% or higher and lower than 70%) | – | 5 (Herbicidal ratio of 90% or more (almost completely withered)) | –
CC(=O)CC1CC(O)=C(c2c(C)cc(OCC(F)(F)F)cc2C)C1=O (stereo not drawn) [7-015] | – | – | – | – | 2 (Herbicidal ratio of 20% or higher and lower than 40%) | 0 (Herbicidal ratio of 5% or lower (almost no effect)) | – | 5 (Herbicidal ratio of 90% or more (almost completely withered)) | – | 5 (Herbicidal ratio of 90% or more (almost completely withered)) | 0 (Herbicidal ratio of 5% or lower (almost no effect)) | 0 (Herbicidal ratio of 5% or lower (almost no effect)) | 0 (Herbicidal ratio of 5% or lower (almost no effect)) | 0 (Herbicidal ratio of 5% or lower (almost no effect)) | 5 (Herbicidal ratio of 90% or more (almost completely withered)) | –
CON=C(C)CC1CC(O)=C(c2c(C)cc(Oc3ccccc3)cc2C)C1=O (stereo not drawn) [6-052] | 5 (Herbicidal ratio of 90% or more (almost completely withered)) | 0 (Herbicidal ratio of 5% or lower (almost no effect)) | 0 (Herbicidal ratio of 5% or lower (almost no effect)) | 0 (Herbicidal ratio of 5% or lower (almost no effect)) | 0 (Herbicidal ratio of 5% or lower (almost no effect)) | 0 (Herbicidal ratio of 5% or lower (almost no effect)) | 2 (Herbicidal ratio of 20% or higher and lower than 40%) | 5 (Herbicidal ratio of 90% or more (almost completely withered)) | 5 (Herbicidal ratio of 90% or more (almost completely withered)) | – | – | – | – | – | – | –
CC(=O)CC1CC(O)=C(c2c(C)cc(-n3cccn3)cc2C)C1=O (stereo not drawn) [7-024] | – | – | – | – | 2 (Herbicidal ratio of 20% or higher and lower than 40%) | 0 (Herbicidal ratio of 5% or lower (almost no effect)) | – | 3 (Herbicidal ratio of 40% or higher and lower than 70%) | – | 3 (Herbicidal ratio of 40% or higher and lower than 70%) | 0 (Herbicidal ratio of 5% or lower (almost no effect)) | 0 (Herbicidal ratio of 5% or lower (almost no effect)) | 0 (Herbicidal ratio of 5% or lower (almost no effect)) | 0 (Herbicidal ratio of 5% or lower (almost no effect)) | 5 (Herbicidal ratio of 90% or more (almost completely withered)) | –
CON=C(C)CC1CC(OC(=O)N2CCOCC2)=C(c2c(C)cc(-c3ccc(Cl)cc3)cc2C)C1=O (mixture of isomers) [6-062] | – | 0 (Herbicidal ratio of 5% or lower (almost no effect)) | 0 (Herbicidal ratio of 5% or lower (almost no effect)) | – | 4 (Herbicidal ratio of 70% or higher and lower than 90%) | 3 (Herbicidal ratio of 40% or higher and lower than 70%) | 3 (Herbicidal ratio of 40% or higher and lower than 70%) | 5 (Herbicidal ratio of 90% or more (almost completely withered)) | – | 4 (Herbicidal ratio of 70% or higher and lower than 90%) | – | – | 0 (Herbicidal ratio of 5% or lower (almost no effect)) | – | 5 (Herbicidal ratio of 90% or more (almost completely withered)) | –
CC(=O)C1CC(O)=C(c2c(C)cc(C)cc2C)C1=O (stereo not drawn) [8-001] | 1 (Herbicidal ratio of 5% or higher and lower than 20%) | – | – | 0 (Herbicidal ratio of 5% or lower (almost no effect)) | 0 (Herbicidal ratio of 5% or lower (almost no effect)) | 0 (Herbicidal ratio of 5% or lower (almost no effect)) | – | – | 1 (Herbicidal ratio of 5% or higher and lower than 20%) | – | 0 (Herbicidal ratio of 5% or lower (almost no effect)) | 0 (Herbicidal ratio of 5% or lower (almost no effect)) | – | 0 (Herbicidal ratio of 5% or lower (almost no effect)) | – | 0 (Herbicidal ratio of 5% or lower (almost no effect))
